Laboratory results as given in article PMC5762315, “Inhibition of polo-like kinase 4 (PLK4): a new therapeutic option for rhabdoid tumors and pediatric medulloblastoma” (Oncotarget, 2017).
“And” between values parts separate entries of the source, which are not always exact repeats. Identical values can stand only once.

Legend:
Assay in all cases: LanthaScreen Eu Kinase Binding Assay, panel of 486 biochemical kinase assays
various kinases [1] = target: T1, various kinases (Homo sapiens, UniProt O75385); settings: kinase ULK1; LanthaScreen Binding
T1 sequence (O75385 1-1050): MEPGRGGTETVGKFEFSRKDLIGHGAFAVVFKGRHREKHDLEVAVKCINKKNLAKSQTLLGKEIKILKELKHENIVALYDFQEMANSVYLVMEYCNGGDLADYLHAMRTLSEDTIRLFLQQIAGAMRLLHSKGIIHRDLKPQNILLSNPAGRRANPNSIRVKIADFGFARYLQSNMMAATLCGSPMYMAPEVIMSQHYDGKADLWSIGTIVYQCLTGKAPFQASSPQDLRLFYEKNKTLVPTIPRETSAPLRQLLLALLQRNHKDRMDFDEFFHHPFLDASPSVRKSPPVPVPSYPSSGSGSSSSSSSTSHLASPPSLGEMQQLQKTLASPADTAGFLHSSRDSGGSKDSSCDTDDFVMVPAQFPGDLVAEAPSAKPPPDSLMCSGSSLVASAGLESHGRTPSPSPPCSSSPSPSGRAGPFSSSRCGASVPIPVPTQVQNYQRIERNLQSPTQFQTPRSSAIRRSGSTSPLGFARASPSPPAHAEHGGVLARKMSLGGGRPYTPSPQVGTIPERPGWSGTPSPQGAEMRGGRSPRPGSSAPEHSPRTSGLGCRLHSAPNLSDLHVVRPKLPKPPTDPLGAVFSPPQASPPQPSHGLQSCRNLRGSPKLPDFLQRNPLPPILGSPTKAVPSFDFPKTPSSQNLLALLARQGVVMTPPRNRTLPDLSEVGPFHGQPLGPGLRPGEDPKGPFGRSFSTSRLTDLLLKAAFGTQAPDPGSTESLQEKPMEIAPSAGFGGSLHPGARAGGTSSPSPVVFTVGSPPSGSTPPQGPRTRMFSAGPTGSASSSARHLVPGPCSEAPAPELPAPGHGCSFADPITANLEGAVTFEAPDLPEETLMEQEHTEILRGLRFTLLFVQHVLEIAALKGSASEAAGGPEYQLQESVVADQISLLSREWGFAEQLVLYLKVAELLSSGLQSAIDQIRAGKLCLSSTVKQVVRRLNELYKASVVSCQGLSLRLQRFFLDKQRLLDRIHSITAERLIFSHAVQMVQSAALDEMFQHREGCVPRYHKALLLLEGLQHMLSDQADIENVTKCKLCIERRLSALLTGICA

various kinases [2] = target: various kinases (Homo sapiens, UniProt P00519, M351T); settings: ABL1 M351T
various kinases [3] = target: various kinases (Homo sapiens, UniProt P10721, D816H); settings: KIT D816H
various kinases [4] = target: various kinases (Homo sapiens, UniProt P10721, T670I/V559D); settings: KIT V559D T670I
various kinases [5] = target: various kinases (Homo sapiens, UniProt P22607, G697C); settings: FGFR3 G697C
various kinases [6] = target: various kinases (Homo sapiens, UniProt P53671); settings: LIMK2
various kinases [7] = target: various kinases (Homo sapiens, UniProt Q13705); settings: ACVR2B
various kinases [8] = target: various kinases (Homo sapiens, UniProt Q86Y07); settings: kinase VRK2; LanthaScreen Binding
various kinases [9] = target: T2, various kinases (Homo sapiens, UniProt Q99640); settings: kinase PKMYT1; LanthaScreen Binding
T2 sequence (Q99640 1-499): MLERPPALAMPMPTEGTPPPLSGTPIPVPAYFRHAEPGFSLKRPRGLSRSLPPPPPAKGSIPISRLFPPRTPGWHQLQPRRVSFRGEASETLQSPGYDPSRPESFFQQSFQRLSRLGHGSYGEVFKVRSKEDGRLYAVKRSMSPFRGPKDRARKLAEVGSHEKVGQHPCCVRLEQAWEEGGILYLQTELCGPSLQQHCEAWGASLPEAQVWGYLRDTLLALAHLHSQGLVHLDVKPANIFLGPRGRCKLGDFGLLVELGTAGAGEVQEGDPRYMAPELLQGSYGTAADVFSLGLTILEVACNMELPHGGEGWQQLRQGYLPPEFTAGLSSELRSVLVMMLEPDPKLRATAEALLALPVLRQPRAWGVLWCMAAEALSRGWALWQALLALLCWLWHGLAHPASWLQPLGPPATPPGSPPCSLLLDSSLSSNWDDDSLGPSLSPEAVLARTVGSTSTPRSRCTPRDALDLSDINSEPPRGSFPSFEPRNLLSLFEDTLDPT

various kinases [10] = target: various kinases (Homo sapiens, UniProt Q9BYP7); settings: kinase WNK3; LanthaScreen Binding
various kinases [11] = target: various kinases (Homo sapiens, UniProt Q9Y572); settings: kinase RIPK3; LanthaScreen Binding
various kinases (Homo sapiens, UniProt Q9Y572), sequence (Q9Y572 whole entry): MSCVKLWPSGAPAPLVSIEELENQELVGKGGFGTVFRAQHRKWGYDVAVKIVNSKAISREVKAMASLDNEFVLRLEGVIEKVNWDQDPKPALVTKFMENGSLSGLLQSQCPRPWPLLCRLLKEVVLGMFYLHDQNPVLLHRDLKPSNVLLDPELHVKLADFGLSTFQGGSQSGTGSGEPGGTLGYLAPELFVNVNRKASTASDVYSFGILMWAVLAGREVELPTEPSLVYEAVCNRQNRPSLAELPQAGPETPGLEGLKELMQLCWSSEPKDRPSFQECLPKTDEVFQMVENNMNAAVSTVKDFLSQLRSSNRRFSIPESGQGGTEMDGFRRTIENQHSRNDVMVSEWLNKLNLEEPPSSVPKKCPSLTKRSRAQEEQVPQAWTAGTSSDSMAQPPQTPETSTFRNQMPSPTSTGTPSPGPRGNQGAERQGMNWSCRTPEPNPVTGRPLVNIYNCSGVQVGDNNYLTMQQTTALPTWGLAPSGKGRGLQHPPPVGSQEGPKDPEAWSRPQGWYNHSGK

various kinases (Homo sapiens, UniProt Q86Y07), sequence (Q86Y07 whole entry): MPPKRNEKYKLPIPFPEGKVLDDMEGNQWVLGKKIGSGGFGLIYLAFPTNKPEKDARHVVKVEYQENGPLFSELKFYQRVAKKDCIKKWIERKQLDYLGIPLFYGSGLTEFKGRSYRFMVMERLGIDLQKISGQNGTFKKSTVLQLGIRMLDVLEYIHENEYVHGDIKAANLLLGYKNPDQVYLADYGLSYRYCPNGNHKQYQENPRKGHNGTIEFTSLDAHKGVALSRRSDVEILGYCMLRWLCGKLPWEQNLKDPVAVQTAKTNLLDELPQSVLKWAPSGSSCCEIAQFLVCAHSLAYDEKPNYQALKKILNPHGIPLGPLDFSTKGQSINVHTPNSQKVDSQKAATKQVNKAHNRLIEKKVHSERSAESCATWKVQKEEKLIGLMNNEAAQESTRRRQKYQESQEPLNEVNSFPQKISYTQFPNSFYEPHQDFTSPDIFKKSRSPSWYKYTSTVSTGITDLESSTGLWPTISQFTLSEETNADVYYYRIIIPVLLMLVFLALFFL
various kinases (Homo sapiens, UniProt Q9BYP7), sequence (Q9BYP7 whole entry): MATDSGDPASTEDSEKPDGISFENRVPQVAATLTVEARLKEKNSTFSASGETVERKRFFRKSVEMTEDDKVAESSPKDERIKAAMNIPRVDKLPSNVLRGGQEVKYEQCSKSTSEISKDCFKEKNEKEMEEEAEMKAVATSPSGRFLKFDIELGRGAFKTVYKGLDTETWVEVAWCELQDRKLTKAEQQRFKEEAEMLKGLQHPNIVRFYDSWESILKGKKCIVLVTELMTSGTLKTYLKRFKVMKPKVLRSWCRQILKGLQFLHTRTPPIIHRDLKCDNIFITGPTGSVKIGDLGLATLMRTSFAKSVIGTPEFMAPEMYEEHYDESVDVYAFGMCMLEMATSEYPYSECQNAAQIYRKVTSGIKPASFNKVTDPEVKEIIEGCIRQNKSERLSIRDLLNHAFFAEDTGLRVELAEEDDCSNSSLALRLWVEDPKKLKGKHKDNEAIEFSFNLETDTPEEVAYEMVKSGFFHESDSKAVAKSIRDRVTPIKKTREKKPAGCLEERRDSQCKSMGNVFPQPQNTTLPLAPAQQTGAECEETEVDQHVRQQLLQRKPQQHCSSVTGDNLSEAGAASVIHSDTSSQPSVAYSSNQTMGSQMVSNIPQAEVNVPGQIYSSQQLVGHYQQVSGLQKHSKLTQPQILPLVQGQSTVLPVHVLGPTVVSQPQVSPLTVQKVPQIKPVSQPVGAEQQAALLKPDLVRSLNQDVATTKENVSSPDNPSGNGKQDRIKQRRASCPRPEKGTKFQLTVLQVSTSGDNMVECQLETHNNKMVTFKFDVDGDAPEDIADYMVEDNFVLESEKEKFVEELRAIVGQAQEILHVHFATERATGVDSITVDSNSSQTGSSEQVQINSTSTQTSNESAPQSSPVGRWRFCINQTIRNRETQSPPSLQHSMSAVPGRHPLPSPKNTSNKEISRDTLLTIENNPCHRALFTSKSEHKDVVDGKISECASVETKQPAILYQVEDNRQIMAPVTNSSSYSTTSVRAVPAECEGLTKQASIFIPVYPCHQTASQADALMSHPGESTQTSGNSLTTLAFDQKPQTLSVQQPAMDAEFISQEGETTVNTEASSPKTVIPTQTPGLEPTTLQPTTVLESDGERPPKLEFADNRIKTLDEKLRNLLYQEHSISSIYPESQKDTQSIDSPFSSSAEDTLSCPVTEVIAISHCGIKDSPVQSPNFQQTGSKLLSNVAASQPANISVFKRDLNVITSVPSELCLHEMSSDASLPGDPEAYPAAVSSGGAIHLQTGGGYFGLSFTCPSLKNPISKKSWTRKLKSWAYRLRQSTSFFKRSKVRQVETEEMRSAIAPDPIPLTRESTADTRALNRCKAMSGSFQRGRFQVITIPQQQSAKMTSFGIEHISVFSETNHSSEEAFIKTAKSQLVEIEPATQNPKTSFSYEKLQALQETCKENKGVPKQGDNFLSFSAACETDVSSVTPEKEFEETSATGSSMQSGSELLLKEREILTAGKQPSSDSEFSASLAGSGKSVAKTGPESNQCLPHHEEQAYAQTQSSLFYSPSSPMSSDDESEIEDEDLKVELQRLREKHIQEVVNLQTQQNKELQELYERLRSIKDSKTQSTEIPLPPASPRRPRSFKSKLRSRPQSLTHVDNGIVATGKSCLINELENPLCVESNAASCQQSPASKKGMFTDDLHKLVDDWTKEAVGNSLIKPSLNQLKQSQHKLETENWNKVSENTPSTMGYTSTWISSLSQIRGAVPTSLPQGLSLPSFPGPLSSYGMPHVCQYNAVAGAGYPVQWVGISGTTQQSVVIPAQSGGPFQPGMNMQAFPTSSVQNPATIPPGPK
various kinases (Homo sapiens, UniProt Q13705), sequence (Q13705 19-512): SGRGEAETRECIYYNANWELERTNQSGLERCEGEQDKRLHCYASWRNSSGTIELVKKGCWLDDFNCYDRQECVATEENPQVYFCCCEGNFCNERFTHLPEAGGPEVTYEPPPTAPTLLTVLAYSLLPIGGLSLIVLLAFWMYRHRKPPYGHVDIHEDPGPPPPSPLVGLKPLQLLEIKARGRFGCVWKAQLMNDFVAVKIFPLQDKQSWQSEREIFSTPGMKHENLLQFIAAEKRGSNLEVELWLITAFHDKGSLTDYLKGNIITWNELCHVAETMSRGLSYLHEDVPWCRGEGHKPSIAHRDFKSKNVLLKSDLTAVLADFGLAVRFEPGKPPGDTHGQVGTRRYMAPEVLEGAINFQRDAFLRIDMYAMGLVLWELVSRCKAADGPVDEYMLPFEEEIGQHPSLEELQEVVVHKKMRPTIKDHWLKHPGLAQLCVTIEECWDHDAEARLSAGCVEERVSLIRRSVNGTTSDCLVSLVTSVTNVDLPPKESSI
various kinases (Homo sapiens, UniProt P10721, D816H), sequence (P10721 26-976 D816H): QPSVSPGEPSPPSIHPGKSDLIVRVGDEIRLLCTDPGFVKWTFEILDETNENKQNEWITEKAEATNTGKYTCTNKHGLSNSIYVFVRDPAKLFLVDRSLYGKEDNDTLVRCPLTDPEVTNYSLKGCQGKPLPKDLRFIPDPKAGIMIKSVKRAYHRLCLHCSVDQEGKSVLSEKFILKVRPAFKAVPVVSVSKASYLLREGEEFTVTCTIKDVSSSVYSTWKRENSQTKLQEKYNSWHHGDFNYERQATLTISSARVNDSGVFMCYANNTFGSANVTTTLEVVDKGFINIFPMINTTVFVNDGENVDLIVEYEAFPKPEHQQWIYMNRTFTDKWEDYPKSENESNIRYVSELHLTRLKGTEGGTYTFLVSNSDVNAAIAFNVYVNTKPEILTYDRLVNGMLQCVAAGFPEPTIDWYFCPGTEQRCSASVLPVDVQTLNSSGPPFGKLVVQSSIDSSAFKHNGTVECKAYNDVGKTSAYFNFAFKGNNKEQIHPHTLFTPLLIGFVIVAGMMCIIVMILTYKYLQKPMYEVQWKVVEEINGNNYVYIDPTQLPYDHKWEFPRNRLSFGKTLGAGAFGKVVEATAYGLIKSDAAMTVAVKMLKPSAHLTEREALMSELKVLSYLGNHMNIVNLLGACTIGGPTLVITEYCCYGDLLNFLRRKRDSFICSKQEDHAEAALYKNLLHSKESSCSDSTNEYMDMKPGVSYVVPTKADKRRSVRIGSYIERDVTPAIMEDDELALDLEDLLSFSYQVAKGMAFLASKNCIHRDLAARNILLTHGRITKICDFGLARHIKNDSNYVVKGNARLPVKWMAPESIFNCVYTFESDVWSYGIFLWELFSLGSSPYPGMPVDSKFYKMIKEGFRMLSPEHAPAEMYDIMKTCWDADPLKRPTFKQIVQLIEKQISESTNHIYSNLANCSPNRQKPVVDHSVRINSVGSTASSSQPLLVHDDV
various kinases (Homo sapiens, UniProt P53671), sequence (P53671 whole entry): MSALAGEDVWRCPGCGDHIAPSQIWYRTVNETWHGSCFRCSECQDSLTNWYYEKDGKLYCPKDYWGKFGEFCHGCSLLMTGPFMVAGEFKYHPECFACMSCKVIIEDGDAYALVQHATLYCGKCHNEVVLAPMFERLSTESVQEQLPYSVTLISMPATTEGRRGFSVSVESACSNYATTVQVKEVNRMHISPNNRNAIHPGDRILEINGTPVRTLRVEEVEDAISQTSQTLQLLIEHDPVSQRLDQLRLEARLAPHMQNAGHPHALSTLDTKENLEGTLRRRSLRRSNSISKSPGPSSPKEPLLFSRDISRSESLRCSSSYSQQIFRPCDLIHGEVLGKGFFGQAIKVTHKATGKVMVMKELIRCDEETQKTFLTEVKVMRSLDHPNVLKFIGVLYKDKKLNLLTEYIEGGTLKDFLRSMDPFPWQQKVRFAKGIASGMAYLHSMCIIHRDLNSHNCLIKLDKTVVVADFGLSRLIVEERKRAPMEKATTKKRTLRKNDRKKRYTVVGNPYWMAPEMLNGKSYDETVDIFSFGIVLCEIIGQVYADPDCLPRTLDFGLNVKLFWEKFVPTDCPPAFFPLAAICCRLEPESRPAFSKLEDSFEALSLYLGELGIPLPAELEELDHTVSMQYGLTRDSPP
various kinases (Homo sapiens, UniProt P10721, T670I/V559D), sequence (P10721 26-976 V559D/T670I): as the sequence (P10721 26-976 D816H) above, with V534D, T645I, H791D counted along it

SMILES: COc1ccc2c(c1)[C@]1(C[C@H]1c1ccc3c(/C=C/c4ccc(CN5C[C@@H](C)O[C@@H](C)C5)cc4)n[nH]c3c1)C(=O)N2 [CFI-400945]
- % Inhibition Average (various kinases [1]): 3%
- % Inhibition Duplicate #1 (various kinases [1]): 4%
- % Inhibition Duplicate #2 (various kinases [1]): 2%
- % Inhibition (various kinases [2]): 78% and 79%
- % Inhibition (various kinases [3]): 21% and 20%
- % Inhibition (various kinases [4]): 10%
- % Inhibition (various kinases [5]): 30% and 40%
- % Inhibition (various kinases [6]): 4% and 0%
- % Inhibition (various kinases [7]): 4% and 0%
- % Inhibition Average (various kinases [8]): 13%
- % Inhibition Duplicate #1 (various kinases [8]): 17%
- % Inhibition Duplicate #2 (various kinases [8]): 8%
- % Inhibition Average (various kinases [9]): 31%
- % Inhibition Duplicate #1 (various kinases [9]): 31%
- % Inhibition Duplicate #2 (various kinases [9]): 30%
- % Inhibition Average (various kinases [10]): -2%
- % Inhibition Duplicate #1 (various kinases [10]): -2%
- % Inhibition Duplicate #2 (various kinases [10]): -1%
- % Inhibition Average (various kinases [11]): 11%
- % Inhibition Duplicate #1 (various kinases [11]): 11%
- % Inhibition Duplicate #2 (various kinases [11]): 11%
